The source of these data is patent US20020114787A1, “Tolerance to natural antibody antigens” (priority 1997, published 2002).

Data set [1] deals with natural antibody function. The experiment in a line: Pig to cynomolgus kidney transplants. Format: in vivo. The note with it: 6 mg/kg/day, i.v. An excerpt:
As is discussed herein, contacting the recipient's blood with galactosyl (α1, 3) galactose epitopes can be used to deplete the host of natural antibodies. Other methods for depleting or otherwise inactivating natural antibodies can be used with any of the methods described herein. For example, drugs which inactivate natural antibodies, e.g., deoxyspergualin (DSG) (Bristol), or anti-IgM antibodies, can be administered to the recipient of an allograft or a xenograft. One or more of, DSG (or similar drugs), anti-IgM antibodies, and hemoperfusion, can be used to inactivate recipient natural antibodies in methods of the invention.

The test system of data set [2] is human natural antibodies (IgG, IgM) binding to porcine PBMC. The experiment in a line: Competitive binding assay, flow cytometry: human natural antibody binding to porcine PBMC. The note with it: human serum pre-incubated with competitor at 1 mg/ml. How it is done: FIG. 1 (Panels A, B, C, D) is a set of graphs which show α1,3Gal/BSA-inhibition of human natural antibody binding to pig cells. Human serum (20 μl) was preincubated with αGal/BSA (Panels A,C) or bovine thyroglobulin (Panels B,D) at concentrations of 1,000 μg/ml (b) or 0.1 μg/ml (c) prior to staining of porcine peripheral blood mononuclear cells (pPBMCs). The negative control (a) consisted of pPBMC plus an equivalent volume of galactosyl α(1, 3) galactose reactive natural antibody-depleted human serum (XNA^−) while the positive control was 20 μl human serum without competitor (d). Following incubation with the human serum, the cells were stained with either anti-human IgG (Panels A,B) or anti-human IgM (Panels C,D).
Human sera were obtained from healthy adult volunteers. Individual samples were isolated and stored at 4° C. for short periods or aliquoted and stored at −70° C. Porcine peripheral blood mononuclear cells (pPBMC) were isolated from heparinized whole blood obtained from an inbred miniature swine herd and resuspended in flow cytometric analysis staining buffer (Hank's Buffered Saline Solution (HBSS), 2.0% fetal calf serum, 0.04% sodium azide (Sigma Chemical Co., St. Louis, Mo.)) to a final concentration of 1×10^7 pPBMC/ml.
Human serum (15 μl) was pre-incubated with serially diluted αGal/BSA, bovine thyroglobulin (Sigma Chemical Co., St. Louis, Mo.) or BSA (Fisher Scientific, Pittsburgh, Pa.) at final concentrations of 1 mg/ml to 1 ng/ml for 90 minutes at 4° C. with gentle rocking. Fifty μl of pPBMC (5×10^5 cells) was incubated with 50 μl of human serum plus competitor for 90 minutes at 4° C. The positive control consisted of staining with human serum alone and the negative control was human serum depleted of natural antibodies (XNA^−). The cells were processed for all subsequent steps in the same way as for direct flow cytometric analysis (DerSimonian, H. M. et al. (1993) J. Exp. Med. 177:1623).

Data set [3] has as its system galactosyl α(1, 3) galactose-reactive natural antibodies in human serum. Put plainly: Competitive ELISA with αGal/BSA or bovine thyroglobulin coated plates. Format: binding. Here is the method: In order to facilitate the detection of galactosyl α(1, 3) galactose-reactive antibodies in human serum samples, an ELISA system using αGal/BSA as the antigen was used. αGal/BSA (provided by BioTransplant, Inc.) was used to coat 96 well polystyrene plates (Costar) at a concentration of 10 μg/ml in PBS overnight at 4° C. Plates coated with BSA were included to control for background reactivity to BSA. Wells were blocked for 1-2 hours at room temperature with 1% BSA in TBS (100 mM Tris-HCl, pH 7.5, 0.9% NaCl). All plates were washed three times with 0.1% Tween-20 in TBS (TBS/Tween) using a Skatron plate washer (Skatron Instruments, Inc., Sterling, Va.). Serial dilutions of human serum from a single donor were used as the standard positive controls. XNA^− (see Example 3) was used as the negative control. Samples were aliquoted in triplicate and allowed to incubate at room temperature for 1 hour. After washing three times with TBS/Tween, the plates were incubated with alkaline phosphatase conjugated mouse monoclonal anti-human IgG or IgM antibody (Sigma Chemical Co., St. Louis, Mo.) for 1-2 hours at room temperature in the dark. The plates were washed and developed with Sigma 104 alkaline phosphatase substrate tablets in carbonate buffer (0.203 g MgCl2, 2.2 g Na2CO3, 2.43 g. NaHCO3 in 1 L. water). The amount of colored product was measured at 405 nm using the SLT Lab Instruments 340 ATC ELISA reader. For competitive ELISA, bovine thyroglobulin and αGal/BSA were serially diluted ten-fold in TBS to final concentrations of 1 mg/ml to 1 ng/ml. Equal volumes of human serum and competitor were combined and incubated for 1 hour at 4° C. The competition reactions were then aliquoted to antigen coated plates and incubated for 1 hour at room temperature. The plates were washed and incubated with alkaline phosphatase conjugated mouse monoclonal anti-human IgG or IgM antibody (Sigma Chemical Co., St. Louis, Mo.) for 1 hour at room temperature. The wells were washed and developed with Sigma 104 alkaline phosphatase substrate. All samples were analyzed in triplicate.

Data set [4] is described as follows: Stability of αGal/BSA in the ELISA system in the presence of human serum. The note with it: 37° C. for up to 24 hours. Format: physicochemical. How it is done:
To ensure that the galactosyl α(1, 3) galactose epitope was stable under these conditions, experiments were performed to determine if there was any detectable hydrolysis of the galactosyl α(1, 3) galactose carbohydrate moiety in the presence of human serum.
Background: In an ELISA, binding on a coated surface is turned into a signal by an enzyme label.

`N=C(N)NCCCCCCC(=O)NC(O)C(=O)NCCCCNCCCN` (stereo not drawn) [DSG, deoxyspergualin]: the “suppression of natural antibody function” value in data set [1] was “useful in suppressing natural antibody function”.
“αGal/BSA: synthetic conjugate with fifteen to thirty-nine αGal moieties per BSA molecule, 70 kD”: in data set [2], the “decrease in IgG binding to pig cells (median fluorescence intensity)” value was found to be 84% and the “reduction of IgM binding to pig cells (median fluorescence intensity)” value is 94%. Moreover, in data set [3] (competitive ELISA, bovine thyroglobulin as antigen), the “concentration that completely inhibited binding of human IgG and IgM to bovine thyroglobulin” value is 1 µg/mL. For the same compound, the “stability (hydrolysis of the galactosyl α(1, 3) galactose moiety) in the ELISA system” value in data set [4] is listed as “stable”.
Consider “Bovine thyroglobulin: galactosyl α(1, 3) galactose containing molecule, estimated eleven naturally occurring residues, 300 kD (Sigma)”, for which, in data set [2], the “decrease in IgG binding to pig cells (median fluorescence intensity)” value is given as 79% and the “reduction of IgM binding to pig cells (median fluorescence intensity)” value is 66%. Moreover, the “concentration necessary to block binding of αGal-reactive natural antibodies to αGal/BSA” value in data set [3] (competitive ELISA, αGal/BSA as antigen) is 100-1,000 μg/ml. Further, the “inhibition of binding of serum natural antibodies to αGal/BSA” value in data set [3] (pre-incubation of serum with competitor) is given as “completely inhibited”.
